Measurements: the CheMixHub viscosity set

Test: xn = mol fraction of the nth substance listed

COC(=O)CC(=O)OC + CCO
303.15 K, 101 kPa
Conditions	viscosity [mPa·s]
x1 = 0.0532	0.972
x1 = 0.1129	0.966
x1 = 0.1787	0.978
x1 = 0.2533	0.998
x1 = 0.337	1.037
x1 = 0.4329	1.097
x1 = 0.5426	1.181
x1 = 0.6705	1.314
x1 = 0.8207	1.513

OCC(F)(F)F + CCO
viscosity [mPa·s]
Conditions	298.15 K	303.15 K	308.15 K	313.15 K	318.15 K	323.15 K
100 kPa, x1 = 0.1081	1.09	1	0.92	0.84	0.77	0.71
100 kPa, x1 = 0.2039	1.09	0.99	0.91	0.83	0.76	0.7
100 kPa, x1 = 0.304	1.1	0.99	0.91	0.83	0.76	0.7
100 kPa, x1 = 0.3989	1.12	1.01	0.92	0.84	0.77	0.7
100 kPa, x1 = 0.508	1.16	1.05	0.95	0.86	0.79	0.72
100 kPa, x1 = 0.601	1.22	1.1	0.99	0.9	0.82	0.75
100 kPa, x1 = 0.7087	1.31	1.18	1.06	0.96	0.87	0.79
100 kPa, x1 = 0.7984	1.4	1.26	1.12	1.02	0.92	0.83
100 kPa, x1 = 0.9032	1.56	1.38	1.23	1.11	0.99	0.9
101 kPa, x1 = 0.01998	1.104	–	–	–	–	–
101 kPa, x1 = 0.0384	1.102	–	–	–	–	–
101 kPa, x1 = 0.05967	1.098	–	–	–	–	–
101 kPa, x1 = 0.1122	1.097	–	–	–	–	–
101 kPa, x1 = 0.1523	1.089	–	–	–	–	–
101 kPa, x1 = 0.2584	1.082	–	–	–	–	–
101 kPa, x1 = 0.3059	1.105	–	–	–	–	–
101 kPa, x1 = 0.5638	1.215	–	–	–	–	–
101 kPa, x1 = 0.8074	1.427	–	–	–	–	–

Brc1ccccc1 + CCOC(C)=O
viscosity [mPa·s], 101 kPa
Conditions	298.15 K	308.15 K
x2 = 0.0463	0.997	0.926
x2 = 0.1501	0.906	0.844
x2 = 0.2468	0.829	0.775
x2 = 0.3482	0.756	0.707
x2 = 0.4571	0.686	0.641
x2 = 0.5073	0.656	0.612
x2 = 0.5465	0.633	0.591
x2 = 0.6468	0.58	0.539
x2 = 0.75	0.53	0.49
x2 = 0.848	0.487	0.447
x2 = 0.9469	0.448	0.407

O=C1CCCO1 + CCOC(C)=O
298.15 K, 101.33 kPa
Conditions	viscosity [mPa·s]
x2 = 0.0501	1.575
x2 = 0.1023	1.453
x2 = 0.1528	1.345
x2 = 0.2005	1.249
x2 = 0.2542	1.152
x2 = 0.3039	1.071
x2 = 0.4046	0.926
x2 = 0.4546	0.864
x2 = 0.5006	0.81
x2 = 0.5528	0.755
x2 = 0.6019	0.707
x2 = 0.6994	0.622
x2 = 0.75	0.583
x2 = 0.7981	0.547
x2 = 0.849	0.513
x2 = 0.902	0.481
x2 = 0.9504	0.45

N#C[S-].[NH4+] + CCOS(=O)(=O)[O-].CC[n+]1ccn(C)c1
viscosity [mPa·s], 101 kPa
Conditions	x1 = 0.0235	x1 = 0.1553	x1 = 0.3025	x1 = 0.4042	x1 = 0.5205	x1 = 0.565	x1 = 0.5997
298.15 K	103.1	150	209.3	231.1	223.9	215.9	208.9
303.15 K	81.26	118	163.3	178.7	173.4	172.5	168.2
308.15 K	65.16	94.31	129.6	140.9	135.3	133.9	133.7
313.15 K	53.09	76.57	104.6	112.9	107.5	106	105.4
318.15 K	43.86	63.03	85.57	91.83	86.87	85.31	84.57
323.15 K	36.68	52.56	70.9	75.56	71.22	69.75	68.92

FB(F)F + CCOc1ccccc1
viscosity [mPa·s], 101 kPa
Conditions	293.15 K	298.15 K	303.15 K
x1 = 0.00901	1.29	1.18	1.08
x1 = 0.1455	1.53	1.39	1.27
x1 = 0.2874	2.42	2.17	1.96
x1 = 0.3269	2.79	2.51	2.25
x1 = 0.3742	3.38	3.01	2.68
x1 = 0.3817	3.48	3.1	2.74
x1 = 0.4143	4	3.52	3.08
x1 = 0.4429	4.57	3.97	3.5
x1 = 0.456	4.87	4.24	3.7
x1 = 0.4744	5.39	4.69	4.06
x1 = 0.4962	6.02	5.19	4.48

N#C[S-].[NH4+] + CCn1cc[n+](C)c1.N#C[S-]
viscosity [mPa·s], 100 kPa
Conditions	298.15 K	303.15 K	308.15 K	313.15 K	318.15 K	323.15 K
x1 = 0.039	25.91	21.97	18.84	16.11	14.28	12.59
x1 = 0.099	29.91	25.16	21.4	18.21	16	14.03
x1 = 0.1395	31.58	26.49	22.47	19.09	16.71	14.62

Brc1ccccc1 + CN1CCCC1=O
viscosity [mPa·s], 101 kPa
Conditions	x2 = 0.1084	x2 = 0.2149	x2 = 0.3193	x2 = 0.4219	x2 = 0.5226	x2 = 0.6215	x2 = 0.7186	x2 = 0.8141	x2 = 0.9078
303.15 K	1.068	1.146	1.22	1.284	1.344	1.396	1.441	1.484	1.522
308.15 K	1.023	1.089	1.148	1.201	1.25	1.29	1.326	1.358	1.382
313.15 K	0.9408	1.005	1.061	1.113	1.159	1.199	1.236	1.268	1.295
318.15 K	0.8512	0.9073	0.9593	1.008	1.052	1.09	1.126	1.157	1.184

BrCCBr + CN1CCC[C@H]1c1cccnc1
viscosity [mPa·s], 101.33 kPa
Conditions	x2 = 0.121	x2 = 0.2341	x2 = 0.3736	x2 = 0.4915	x2 = 0.613	x2 = 0.7575	x2 = 0.8734
298.15 K	1.765	1.939	2.233	2.523	2.804	3.055	3.341
323.15 K	1.2	1.383	1.466	1.599	1.714	1.838	1.884

C1COCCO1 + CN(C)C=O
viscosity [mPa·s], 101 kPa
Conditions	x2 = 0.1181	x2 = 0.2316	x2 = 0.3406	x2 = 0.4455	x2 = 0.5465	x2 = 0.6439	x2 = 0.7377	x2 = 0.8282	x2 = 0.9156
298.15 K	1.109	1.043	0.984	0.934	0.891	0.859	0.835	0.82	0.811
308.15 K	0.952	0.899	0.849	0.807	0.772	0.746	0.726	0.714	0.708
318.15 K	0.843	0.797	0.753	0.713	0.68	0.653	0.636	0.624	0.618

CCCCCC(=O)[O-].C[NH2+]c1ccccc1 + CN(C)C=O
viscosity [mPa·s], 101 kPa
Conditions	x1 = 0.004889	x1 = 0.008423	x1 = 0.01411	x1 = 0.01792	x1 = 0.02131	x1 = 0.02717	x1 = 0.0305	x1 = 0.03458
293.15 K	0.957	0.969	0.992	1.009	1.026	1.052	1.072	1.099
298.15 K	0.916	0.926	0.946	0.961	0.975	0.998	1.016	1.038
303.15 K	0.879	0.887	0.905	0.918	0.93	0.95	0.966	0.985
308.15 K	0.846	0.854	0.869	0.881	0.891	0.909	0.923	0.94
313.15 K	0.817	0.824	0.837	0.847	0.857	0.873	0.884	0.899
318.15 K	0.791	0.797	0.809	0.818	0.826	0.84	0.85	0.863
323.15 K	0.767	0.772	0.784	0.791	0.798	0.812	0.82	0.831
